The results in this text go back to patent US6352958B1, “Cycloimido-substituted benzofused heterocyclic herbicides” (FMC Corporation, priority 1997, dated 2002).

The subject of series [1] is green foxtail (Setaria viridis). The series is described as follows: Preemergence herbicidal activity, green foxtail. Type of series: in vivo. To be noted: Rate of Application 0.3 Kg/Ha, examined after 12-17 days.
The subject of series [2] is soybean (Glycine max var. Winchester). The experiment in a line: Preemergence herbicidal activity, soybean. To be noted: Rate of Application 0.3 Kg/Ha, examined after 12-17 days. Format: in vivo.
Series [3] deals with blackgrass (Aloepecurus myosuroides). The series is described as follows: Postemergence herbicidal activity, blackgrass. Particulars: rate of application 0.3 Kg/Ha, rated after 12-17 days. Format: in vivo.
The test system of series [4] is field corn (Zea mays var. Pioneer 3732). The series is described as follows: Postemergence herbicidal activity, corn. Format: in vivo. Particulars: rate of application 0.3 Kg/Ha, rated after 12-17 days.
In series [5] the test system is soybean (Glycine max var. Winchester). The experiment in a line: Postemergence herbicidal activity, soybean. Format: in vivo. Particulars: rate of application 0.3 Kg/Ha, rated after 12-17 days.
Series [6] relates to Johnsongrass (Sorghum halepense). The series is described as follows: Preemergence herbicidal activity, johnsongrass. Type of series: in vivo. To be noted: Rate of Application 0.3 Kg/Ha, examined after 12-17 days.
Series [7] relates to field corn (Zea mays var. Pioneer 3732). The experiment in a line: Preemergence herbicidal activity, corn. To be noted: Rate of Application 0.3 Kg/Ha, examined after 12-17 days. Type of series: in vivo.
For series [8], the system named is common chickweed (Stellaria media). The experiment in a line: Preemergence herbicidal activity, chickweed. Format: in vivo. Particulars: Rate of Application 0.3 Kg/Ha, examined after 12-17 days.
Series [9] concerns Johnsongrass (Sorghum halepense). The series is described as follows: Postemergence herbicidal activity, johnsongrass. Type of series: in vivo. Particulars: rate of application 0.3 Kg/Ha, rated after 12-17 days.
For series [10], the system named is velvetleaf (Abutilon theophrasti). The series is described as follows: Postemergence herbicidal activity, velvetleaf. Format: in vivo. Particulars: rate of application 0.3 Kg/Ha, rated after 12-17 days.
The test system is the same in series [11]. The experiment in a line: Preemergence herbicidal activity, velvetleaf. Format: in vivo. To be noted: Rate of Application 0.3 Kg/Ha, examined after 12-17 days.
In series [12] the test system is green foxtail (Setaria viridis). The series is described as follows: Postemergence herbicidal activity, green foxtail. Type of series: in vivo. To be noted: rate of application 0.3 Kg/Ha, rated after 12-17 days.
Series [13] deals with wheat (Triticum aestivum var. Lew). The experiment in a line: Postemergence herbicidal activity, wheat. Format: in vivo. Particulars: rate of application 0.3 Kg/Ha, rated after 12-17 days.
In series [14] the test system is morningglory (Ipomea lacunosa or Ipomea hederacea). The experiment in a line: Preemergence herbicidal activity, morningglory. Format: in vivo. To be noted: Rate of Application 0.3 Kg/Ha, examined after 12-17 days.
Series [15] relates to common cocklebur (Xanthium strumarium L.). The experiment in a line: Postemergence herbicidal activity, cocklebur. Format: in vivo. Particulars: rate of application 0.3 Kg/Ha, rated after 12-17 days.
For series [16], the system named is morningglory (Ipomea lacunosa or Ipomea hederacea). The series is described as follows: Postemergence herbicidal activity, morningglory. Format: in vivo. Particulars: rate of application 0.3 Kg/Ha, rated after 12-17 days.
For series [17], the system named is blackgrass (Aloepecurus myosuroides). The series is described as follows: Preemergence herbicidal activity, blackgrass. Type of series: in vivo. To be noted: Rate of Application 0.3 Kg/Ha, examined after 12-17 days.
Series [18] deals with common cocklebur (Xanthium strumarium L.). The experiment in a line: Preemergence herbicidal activity, cocklebur. Type of series: in vivo. Particulars: Rate of Application 0.3 Kg/Ha, examined after 12-17 days.
The test system of series [19] is wheat (Triticum aestivum var. Lew). The experiment in a line: Preemergence herbicidal activity, wheat. Type of series: in vivo. To be noted: Rate of Application 0.3 Kg/Ha, examined after 12-17 days.
Series [20] relates to common chickweed (Stellaria media). The experiment in a line: Postemergence herbicidal activity, chickweed. Format: in vivo. To be noted: rate of application 0.3 Kg/Ha, rated after 12-17 days.

Molecules are shown by their SMILES.

As a reminder, the melting point is the temperature, or range, at which the solid turns liquid. `Cn1c(C(F)(F)F)cc(=O)n(-c2c(F)cc(Cl)c3[nH]c(C(C)(C)C)nc23)c1=O` [Compound 369, 3-(2-T-BUTYL4-CHLORO-6-FLUOROBENZIMIDAZOL-7-YL)-1-METHYL-6-TRIFLUOROMETHYL-2,4(1H,3H)-PYRIMIDINEDIONE] came in with a melting point of 125 to 130 °C. Also, in [1] (Setaria viridis, pre-emergence, read-out: PREEMERGENCE HERBICIDAL ACTIVITY (% CONTROL) SETVI), the inhibition at 300 g/ha amounted to 100%. Moreover, the inhibition at 300 g/ha in series [2] (Glycine max, pre-emergence, read-out: PREEMERGENCE HERBICIDAL ACTIVITY (% CONTROL) SOY) worked out at 100%. The inhibition at 300 g/ha in [3] (Alopecurus myosuroides, post-emergence, read-out: Postemergence herbicidal activity (% control) ALOMY) was found to be 100%. Besides, the inhibition at 300 g/ha in series [4] (Zea mays, post-emergence, read-out: Postemergence herbicidal activity (% control) CRN) is 100%. Besides, the inhibition at 300 g/ha in [5] (Glycine max, post-emergence, read-out: Postemergence herbicidal activity (% control) SOY) was 100%. In addition, the inhibition at 300 g/ha in series [6] (Sorghum halepense, pre-emergence, read-out: PREEMERGENCE HERBICIDAL ACTIVITY (% CONTROL) SORHA) was found to be 100%. For the same compound, the inhibition at 300 g/ha in series [7] (Zea mays, pre-emergence, read-out: PREEMERGENCE HERBICIDAL ACTIVITY (% CONTROL) CRN) is 100%. Further, in series [8] (Stellaria media, pre-emergence, read-out: PREEMERGENCE HERBICIDAL ACTIVITY (% CONTROL) STEME), the inhibition at 300 g/ha was determined as 100%. For the same compound, the inhibition at 300 g/ha in [9] (Sorghum halepense, post-emergence, read-out: Postemergence herbicidal activity (% control) SORHA) turned out to be 100%. Moreover, the inhibition at 300 g/ha in [10] (Abutilon theophrasti, post-emergence, read-out: Postemergence herbicidal activity (% control) ABUTH) is 100%. In addition, the inhibition at 300 g/ha in series [11] (Abutilon theophrasti, pre-emergence, read-out: PREEMERGENCE HERBICIDAL ACTIVITY (% CONTROL) ABUTH) stood at 100%. The inhibition at 300 g/ha in series [12] (Setaria viridis, post-emergence, read-out: Postemergence herbicidal activity (% control) SETVI) turned out to be 100%. Also, in series [13] (Triticum aestivum, post-emergence, read-out: Postemergence herbicidal activity (% control) WHT), the inhibition at 300 g/ha stood at 80%. Moreover, the inhibition at 300 g/ha in [14] (Ipomoea, pre-emergence, read-out: PREEMERGENCE HERBICIDAL ACTIVITY (% CONTROL) IPOSS) was found to be 100%. The inhibition at 300 g/ha in series [15] (Xanthium strumarium, post-emergence, read-out: Postemergence herbicidal activity (% control) XANPE) turned out to be 100%. For the same compound, the inhibition at 300 g/ha in [16] (Ipomoea, post-emergence, read-out: Postemergence herbicidal activity (% control) IPOSS) turned out to be 100%. For the same compound, the inhibition at 300 g/ha in series [17] (Alopecurus myosuroides, pre-emergence, read-out: PREEMERGENCE HERBICIDAL ACTIVITY (% CONTROL) ALOMY) worked out at 100%. Also, the inhibition at 300 g/ha in series [18] (Xanthium strumarium, pre-emergence, read-out: PREEMERGENCE HERBICIDAL ACTIVITY (% CONTROL) XANPE) is 100%. Besides, in series [19] (Triticum aestivum, pre-emergence, read-out: PREEMERGENCE HERBICIDAL ACTIVITY (% CONTROL) WHT), the inhibition at 300 g/ha was found to be 100%.

As for `COCc1nc2c(-n3c(=O)cc(C(F)(F)F)n(C)c3=O)c(F)cc(Cl)c2[nH]1` [Compound 370], in series [1], the “PREEMERGENCE HERBICIDAL ACTIVITY (% CONTROL) SETVI” value came out at 100%. The “PREEMERGENCE HERBICIDAL ACTIVITY (% CONTROL) SOY” value in series [2] was determined as 100%. Besides, in [3], the “Postemergence herbicidal activity (% control) ALOMY” value came to 100%. For the same compound, the “Postemergence herbicidal activity (% control) CRN” value in series [4] amounted to 100%. In addition, in series [5], the “Postemergence herbicidal activity (% control) SOY” value is listed as 100%. Further, the “PREEMERGENCE HERBICIDAL ACTIVITY (% CONTROL) SORHA” value in series [6] is given as 100%. Besides, the “PREEMERGENCE HERBICIDAL ACTIVITY (% CONTROL) CRN” value in series [7] is on record as 95%. Further, in [8], the “PREEMERGENCE HERBICIDAL ACTIVITY (% CONTROL) STEME” value stood at 100%. Moreover, the “Postemergence herbicidal activity (% control) STEME” value in series [20] turned out to be 100%. Further, the “Postemergence herbicidal activity (% control) SORHA” value in [9] came to 100%. For the same compound, the “Postemergence herbicidal activity (% control) ABUTH” value in [10] is 100%. Besides, the “PREEMERGENCE HERBICIDAL ACTIVITY (% CONTROL) ABUTH” value in series [11] worked out at 100%. For the same compound, the “Postemergence herbicidal activity (% control) SETVI” value in series [12] was 100%. Besides, the “Postemergence herbicidal activity (% control) WHT” value in series [13] worked out at 95%. In [14], the “PREEMERGENCE HERBICIDAL ACTIVITY (% CONTROL) IPOSS” value is given as 100%. In [15], the “Postemergence herbicidal activity (% control) XANPE” value is given as 100%. The “Postemergence herbicidal activity (% control) IPOSS” value in series [16] stood at 100%. For the same compound, the “PREEMERGENCE HERBICIDAL ACTIVITY (% CONTROL) ALOMY” value in series [17] turned out to be 90%. Moreover, the “PREEMERGENCE HERBICIDAL ACTIVITY (% CONTROL) XANPE” value in [18] amounted to 100%. Further, the “PREEMERGENCE HERBICIDAL ACTIVITY (% CONTROL) WHT” value in series [19] came to 100%.
